Holding throughout (format): cell-based
In assay [1] the test system is securin "knock out" cells F3 (Securin-/-). The experiment in a line: Growth inhibition (sulforhodamine B, 5 days) of securin knock out cells F3. The conditions noted are these: for IC50: 120 h, securin knock out F3 cells, 5 days, SRB; for Selectivity Ratio F3: IC50 HCT116 / IC50 securin KO F3. How it is done:
(§1) IC50 analysis was performed for selected fused bicyclic 2-aryl or 2-heteroarylthiazolyl compounds that were tested on HCT116 cells and Securin “knock out” cell lines.
(§2) Cell Culture—HCT116 and securin “knock out” cells. HCT116 and securin “knock out” cells (D8 and F3) were grown in RPMI+5% fetal bovine serum and gentamycin. They were maintained in a humidified 37° C. incubator with 5% CO2. Since the securin “knock out” cells have active chromosomal instability, cells were used at a low passage number of 2-13 passages. At or before passage 13 a new vial of cells was thawed and used for the screen. Cell seeding—HCT116 cells and securin “knock out” cells were trypsinized and suspended in RPMI+5% FBS at a density of 27,000 cells/mL. HCT116 and securin “knock out” cells were seeded separately in wells of a 96-well plate (Falcon Cat # 35-3872) at a cell density of 4000 cells per well. Cells were seeded in 150 μL of RPMI media containing 5% FBS and gentamycin. Cell seeding was performed under aseptic conditions. Cells were allowed to attach and grow overnight in a humidified 37° C. incubator.
(§3) Compound Dilution and Dispensation. A series of stock solutions, 10 mg/mL of fused bicyclic 2-aryl- or 2-heteroarylthiazolyl compounds to be tested, were brought to room temperature. The compounds were diluted 1:50 in RPMI+5% FBS (Highest concentration 200 μg/mL). The compounds were then serially diluted 1:3 across a deep-well titration plate resulting in final concentrations in the plate of 200, 66.7, 22.2, 7.4, 2.4, 0.8, 0.27, 0.091, 0.03, 0.01, and 0.0034 μg/mL with one well left without a compound. 50 μL of this dilution series was added to the 150 μL of cells to result in a final concentration of compound in with the cells of 50, 16.6, 5.5, 1.8, 0.6, 0.2, 0.068, 0.023, 0.0076, 0.0025, and 0.00084 μg/mL. The dilution and addition of compounds to the plates is performed using a Multimek 96 Robot (Beckman Coulter).
(§4) Incubation and analysis. After dosing, the cells in the 96 well plates were returned to the humidified 37° C. incubator. The compounds remained on the cells for 5 days. After 5 days, the cells were fixed to the plates with the addition of 50 μL of 50% (vol/vol) Trichloro Acetic Acid ([…]). The cells were fixed at 4° C. for 1 hour. The plates were washed 5 times in distilled water and allowed to dry. The cells were stained with 0.4% sulforhodamine B (Sigma) in 1% acetic acid. The cells were stained for 15 minutes at room temperature. The plates were then washed 3 times in 1% acetic acid. The plates were dried and the dye was solubilized in 10 mM Tris at pH 8.0. The plates were read on the Absorbence 560 setting on a Victor^2 V Model 1420 Multilabel HTS counter (Perkin Elmer).
(§5) Analysis of Results—IC50 data. Absorbence data was read off of the Victor and was converted to a percentage of the control (untreated) values. IC50 values were graphed and the point at which a 50% inhibition of the control level was determined. […] If the model was not able to determine an IC50, the IC50 was assigned to the lowest concentration that gives a 50% or greater decrease in absorbence compared to control levels. If the calculated IC50 value for a cell line exceeds the top concentration for the assay (typically 50 μg/mL), the assay was scored as >50.
(§6) Selectivity Ratio. The Selectivity Ratio is the ratio of IC50s between the parent cell line and the knock out cell line and is always a positive number and is typically an integer.

Assay [2] concerns HCT116 cells (Securin+/+, securin parental, HCT116 FB). The experiment in a line: Growth inhibition (sulforhodamine B, 5 days) of securin parental cells. Particulars: Homo sapiens, HCT-116, 120 h, SRB. How it is done: as §1, §2, §3, §4, §5, §6
Assay [3] relates to securin "knock out" cells D8 (Securin-/-). The experiment in a line: Growth inhibition (sulforhodamine B, 5 days) of securin knock out cells D8. The conditions noted are these: for IC50: 120 h, securin knock out D8 cells, 5 days, SRB; for Selectivity Ratio D8: IC50 HCT116 / IC50 securin KO D8. How it is done:
as §1, §2, §3, §4, §5, §6

Experimental findings from US20090270363A1, “2-Aryl- and 2-Heteroarylthiazolyl Compounds, Methods for Their Preparation and Use Thereof” (Wyeth, priority 2008, published 2009) are described below.

Turning to `CC(O)c1cc(N(C)C)ccc1-c1nc2c(s1)C(O)CCC2` (stereo not shown) [Example 73, 2-[4-(dimethylamino)-2-(1-hydroxyethyl)phenyl]-4,5,6,7-tetrahydro-1,3-benzothiazol-7-ol], in assay [1], the IC50 came out at 0.79 µM and the “Selectivity Ratio F3” value came to 126. The IC50 in assay [2] was found to be 99.5 µM. Further, in assay [3], the IC50 was determined as 0.44 µM and the “Selectivity Ratio D8” value is listed as 226.

Take `CC(=O)c1cc(N(C)C)ccc1-c1nc2c(s1)C(O)CCC2` (stereo not shown) [Example 74, 1-[5-(dimethylamino)-2-(7-hydroxy-4,5,6,7-tetrahydro-1,3-benzothiazol-2-yl)phenyl]ethanone]: in assay [1], the IC50 was found to be 0.18 µM and the “Selectivity Ratio F3” value was 558. In addition, in assay [2], the IC50 came to 100 µM. Moreover, in assay [3], the IC50 was 0.15 µM and the “Selectivity Ratio D8” value is on record as 650.

As to `CC(=O)c1c(-c2nc3c(s2)C(O)CCC3)ccc(N(C)C)c1Br` (stereo not shown) [Example 81, 1-[2-bromo-3-(dimethylamino)-6-(7-hydroxy-4,5,6,7-tetrahydro-1,3-benzothiazol-2-yl)phenyl]ethanone], in assay [1], half-maximal inhibition (IC50) required 0.35 µM and the “Selectivity Ratio F3” value turned out to be 170. Besides, in assay [2], the IC50 was found to be 58.9 µM. Besides, in assay [3], the midpoint of inhibition, the IC50, lay at 0.13 µM and the “Selectivity Ratio D8” value is recorded as 459.

In the case of `N#Cc1cc(N2CCCC2)ccc1-c1nc2c(s1)C(O)CCC2` (stereo not shown) [Example 85, 2-(7-hydroxy-4,5,6,7-tetrahydro-1,3-benzothiazol-2-yl)-5-pyrrolidin-1-ylbenzonitrile], in assay [1], the midpoint of inhibition, the IC50, lay at 0.31 µM and the “Selectivity Ratio F3” value is on record as 159. Further, the half-inhibitory concentration (IC50) in assay [2] amounted to 48.4 µM. In assay [3], half-maximal inhibition (IC50) was put at 0.19 µM and the “Selectivity Ratio D8” value is 253.

On to `Cc1cc(N(C)C)ccc1-c1nc2c(s1)[C@H](O)CCC2` [Example 99, (7R)-2-[4-(dimethylamino)-2-methylphenyl]-4,5,6,7-tetrahydro-1,3-benzothiazol-7-ol], for which, in assay [1], the half-inhibitory concentration (IC50) was found to be 0.21 µM and the “Selectivity Ratio F3” value is 810. The concentration for half-maximal inhibition (IC50) in assay [2] is not below 173 µM. Also, in assay [3], the concentration for half-maximal inhibition (IC50) was determined as 0.24 µM and the “Selectivity Ratio D8” value was 709.

Consider `CC(C)OC(=O)c1cc(N(C)C)ccc1-c1nc2c(s1)C(O)CCC2` (stereo not shown) [Example 111, isopropyl 5-(dimethylamino)-2-(7-hydroxy-4,5,6,7-tetrahydro-1,3-benzothiazol-2-yl)benzoate], for which the half-inhibitory concentration (IC50) in assay [1] worked out at 1.4 µM; in assay [2], 100 µM; in assay [3] it was 1.3 µM. Moreover, the “Selectivity Ratio F3” value in assay [1] is given as 71. The “Selectivity Ratio D8” value in assay [3] worked out at 75.

For the compound `C=CCOC(=O)c1cc(N(C)C)ccc1-c1nc2c(s1)C(O)CCC2` (stereo not shown) [Example 112, allyl 5-(dimethylamino)-2-(7-hydroxy-4,5,6,7-tetrahydro-1,3-benzothiazol-2-yl)benzoate], in assay [1], the concentration for half-maximal inhibition (IC50) stood at 0.72 µM and the “Selectivity Ratio F3” value was 135. Further, the IC50 in assay [2] was 97.3 µM. For the same compound, in assay [3], the IC50 amounted to 0.54 µM and the “Selectivity Ratio D8” value was 182.

For the compound `CN(C)c1ccc(-c2nc3c(s2)C(O)CCC3)c(C(=O)OCc2ccoc2)c1` (stereo not shown) [Example 116, 3-furylmethyl 5-(dimethylamino)-2-(7-hydroxy-4,5,6,7-tetrahydro-1,3-benzothiazol-2-yl)benzoate], in assay [1], the 50% inhibitory concentration (IC50) was determined as 0.82 µM and the “Selectivity Ratio F3” value was 104. In addition, the half-inhibitory concentration (IC50) in assay [2] was found to be 85.2 µM. In addition, in assay [3], the IC50 amounted to 0.59 µM and the “Selectivity Ratio D8” value came out at 145.

`CCCOC(=O)c1cc(N(C)C)ccc1-c1nc2c(s1)C(O)CCC2` (stereo not shown) [Example 121, propyl 5-(dimethylamino)-2-(7-hydroxy-4,5,6,7-tetrahydro-1,3-benzothiazol-2-yl)benzoate]: in assay [1], the half-inhibitory concentration (IC50) is 1.7 µM and the “Selectivity Ratio F3” value was 44. Further, the IC50 in assay [2] is 77.3 µM. Also, in assay [3], it took 0.69 µM to reach half-maximal inhibition (IC50) and the “Selectivity Ratio D8” value came out at 112.

As for `CN(C)c1ccc(-c2nc3c(s2)C(O)CCC3)c(C(=O)OCc2ccsc2)c1` (stereo not shown) [Example 122, 3-thienylmethyl 5-(dimethylamino)-2-(7-hydroxy-4,5,6,7-tetrahydro-1,3-benzothiazol-2-yl)benzoate], in assay [1], the IC50 turned out to be 2.1 µM and the “Selectivity Ratio F3” value was 20. Further, in assay [2], the IC50 stood at 42.2 µM. Moreover, in assay [3], half-maximal inhibition (IC50) was put at 0.76 µM and the “Selectivity Ratio D8” value is recorded as 55.

For the compound `CN(C)c1ccc(-c2nc3c(s2)C(O)CCC3)c(C(=O)OCc2cccs2)c1` (stereo not shown) [Example 123, 2-thienylmethyl 5-(dimethylamino)-2-(7-hydroxy-4,5,6,7-tetrahydro-1,3-benzothiazol-2-yl)benzoate], in assay [1], inhibition was half-maximal at 4.4 µM (IC50) and the “Selectivity Ratio F3” value was 20. In addition, the IC50 in assay [2] was 90 µM. In assay [3], inhibition was half-maximal at 1.7 µM (IC50) and the “Selectivity Ratio D8” value was 52.

`CN(C)c1ccc(-c2nc3c(s2)C(O)CCC3)c(C(=O)OCc2cccnc2)c1` (stereo not shown) [Example 126, pyridin-3-ylmethyl 5-(dimethylamino)-2-(7-hydroxy-4,5,6,7-tetrahydro-1,3-benzothiazol-2-yl)benzoate]: in assay [1], the IC50 was 2.5 µM and the “Selectivity Ratio F3” value worked out at 40. Besides, in assay [2], the IC50 worked out at 100 µM. In assay [3], half-maximal inhibition (IC50) required 1.9 µM and the “Selectivity Ratio D8” value came out at 54.

With `CN(C)c1ccc(-c2nc3c(s2)C(O)CCC3)c(C(=O)OCc2ccncc2)c1` (stereo not shown) [Example 127, pyridin-4-ylmethyl 5-(dimethylamino)-2-(7-hydroxy-4,5,6,7-tetrahydro-1,3-benzothiazol-2-yl)benzoate], the concentration for half-maximal inhibition (IC50) in assay [1] is 6.3 µM; in assay [2], 100 µM; in assay [3], 4.9 µM. Further, in assay [1], the “Selectivity Ratio F3” value is 16. Besides, the “Selectivity Ratio D8” value in assay [3] turned out to be 20.

Take `CN(C)c1ccc(-c2nc3c(s2)C(O)CCC3)c(C(=O)OCc2ccccn2)c1` (stereo not shown) [Example 128, pyridin-2-ylmethyl 5-(dimethylamino)-2-(7-hydroxy-4,5,6,7-tetrahydro-1,3-benzothiazol-2-yl)benzoate]: the 50% inhibitory concentration (IC50) in assay [1] amounted to 2.6 µM; in assay [2], 86.7 µM; in assay [3] it was 1.9 µM. The “Selectivity Ratio F3” value in assay [1] is on record as 33. Also, the “Selectivity Ratio D8” value in assay [3] worked out at 45.

On to `C#CCOC(=O)c1cc(N(C)C)ccc1-c1nc2c(s1)C(O)CCC2` (stereo not shown) [Example 129, prop-2-yn-1-yl 5-(dimethylamino)-2-(7-hydroxy-4,5,6,7-tetrahydro-1,3-benzothiazol-2-yl)benzoate], for which, in assay [1], half-maximal inhibition (IC50) required 0.45 µM and the “Selectivity Ratio F3” value is reported as 172. Besides, the concentration for half-maximal inhibition (IC50) in assay [2] is 77.8 µM. Moreover, in assay [3], half-maximal inhibition (IC50) required 0.36 µM and the “Selectivity Ratio D8” value turned out to be 216.

On to `C/C=C/COC(=O)c1cc(N(C)C)ccc1-c1nc2c(s1)C(O)CCC2` (stereo not shown) [Example 130, (2E)-but-2-en-1-yl 5-(dimethylamino)-2-(7-hydroxy-4,5,6,7-tetrahydro-1,3-benzothiazol-2-yl)benzoate], for which, in assay [1], the IC50 turned out to be 2.4 µM and the “Selectivity Ratio F3” value is recorded as 32. In addition, the IC50 in assay [2] came out at 77.6 µM. In assay [3], inhibition was half-maximal at 2 µM (IC50) and the “Selectivity Ratio D8” value came to 38.

In the case of `CC#CCOC(=O)c1cc(N(C)C)ccc1-c1nc2c(s1)C(O)CCC2` (stereo not shown) [Example 133, but-2-yn-1-yl 5-(dimethylamino)-2-(7-hydroxy-4,5,6,7-tetrahydro-1,3-benzothiazol-2-yl)benzoate], in assay [1], the IC50 was found to be 1.8 µM and the “Selectivity Ratio F3” value was 54. Moreover, in assay [2], the half-maximal inhibitory concentration (IC50) stood at 96.5 µM. Further, in assay [3], inhibition was half-maximal at 1.1 µM (IC50) and the “Selectivity Ratio D8” value amounted to 87.
